In patent US9695155B2, “Herbicidal substituted pyrimidinyloxy benzene compounds” (E. I. DU PONT DE NEMOURS AND COMPANY, priority 2013, dated 2017):

Key:
barnyardgrass = assay: Test B flooded paddy test; type: in vivo, Echinochloa crus-galli; conditions: Flood, 250 g ai/ha; 0 to 100 scale where 0 is no effect and 100 is complete control
Method in brief: (§1)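 2-leaf stage plants; pots flooded to 3 cm, compound added to paddy water, depth maintained. Greenhouse 13–15 d. Visual rating vs untreated controls, 0 (no effect) to 100 (complete control); dash = no result.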

sedge, umbrella = assay: Test B flooded paddy test; type: in vivo, Cyperus difformis; conditions: Flood, 250 g ai/ha; 0 to 100 scale where 0 is no effect and 100 is complete control
Method in brief: as §1

wheat = assay: Test A preemergence; type: in vivo, Triticum aestivum
Method in brief: (§2)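 Scoring: eye-based comparison with untreated controls, 0 for no effect through 100 for complete control, at about day 10. Treatments: directed soil spray preemergence; foliar spray postemergence on 2–10 cm plants at the one- to two-leaf stage. Medium: loam soil with sand.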

soybean = assay: Test C postemergence; type: in vivo, Glycine max
Method in brief: (§3)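 Visual injury score versus untreated controls, 0 = no effect, 100 = complete control, taken 13 to 15 days after treatment in the greenhouse. Pre-emergence pots held loam/sand; post-emergence plants grew in sphagnum peat/vermiculite mix and were sprayed at the 1- to 4-leaf stage.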

giant foxtail [1] = assay: Test A postemergence; type: in vivo, Setaria faberii; conditions: 0 to 100 scale where 0 is no effect and 100 is complete control
Method in brief: as §2

oilseed rape = assay: Test C postemergence; type: in vivo, Brassica napus
Method in brief: as §3

corn = assay: Test A preemergence; type: in vivo, Zea mays
Method in brief: as §2

rice = assay: Test B flooded paddy test; type: in vivo, Oryza sativa; conditions: Flood, 250 g ai/ha; 0 to 100 scale where 0 is no effect and 100 is complete control
Method in brief: as §1

giant foxtail [2] = assay: Test A preemergence; type: in vivo, Setaria faberii
Method in brief: as §2

large (Lg) crabgrass = assay: Test A postemergence; type: in vivo, Digitaria sanguinalis; conditions: 0 to 100 scale where 0 is no effect and 100 is complete control
Method in brief: as §2

galium = assay: Test C postemergence; type: in vivo, Galium aparine
Method in brief: as §3

pigweed = assay: Test A postemergence; type: in vivo, Amaranthus retroflexus; conditions: 0 to 100 scale where 0 is no effect and 100 is complete control
Method in brief: as §2

lambsquarters = assay: Test C postemergence; type: in vivo, Chenopodium album
Method in brief: as §3

chickweed = assay: Test C postemergence; type: in vivo, Stellaria media
Method in brief: as §3

Italian ryegrass = assay: Test C postemergence; type: in vivo, Lolium multiflorum
Method in brief: as §3

waterhemp = assay: Test C postemergence; type: in vivo, Amaranthus rudis
Method in brief: as §3

[3] = 500 g ai/ha, 0 to 100 scale where 0 is no effect and 100 is complete control
[4] = 16 g ai/ha, postemergence, 0 is no effect, 100 is complete control
[5] = 31 g ai/ha, postemergence, visual rating, scale 0 to 100 (0 no effect, 100 complete control), 13 to 15 days
[6] = 125 g ai/ha, postemergence, visual rating, scale 0 to 100 (0 no effect, 100 complete control)
[7] = Postemergence, 62 g ai/ha, scale 0 to 100 (0 no effect, 100 complete control), 13 to 15 days

FC(F)c1cnn(-c2c(Br)cccc2Oc2ncc(Cl)cn2)c1 [Compound 232]
Plant response rating, Barnyardgrass (barnyardgrass): 10
Plant response rating, Sedge, Umbrella (sedge, umbrella): 80
Wheat plant response rating (0 to 100 scale) (wheat; 125 g ai/ha): 0
Wheat plant response rating (wheat; [3]): 10
Plant response rating (0 to 100), Soybean (soybean; [4]): 30
Soybean plant response rating (soybean; [5]): 55
Plant response rating, Soybean (soybean; [6]): 75
Plant response rating, Soybean (soybean; [7]): 70
Foxtail, Giant plant response rating (giant foxtail [1]; 125 g ai/ha): 70
Plant response rating, Foxtail, Giant (giant foxtail [1]; 500 g ai/ha): 90
Plant response rating (0 to 100), Oilseed Rape (oilseed rape; [4]): 5
Oilseed Rape plant response rating (oilseed rape; [5]): 50
Plant response rating, Oilseed Rape (oilseed rape; [6]): 60
Plant response rating, Oilseed Rape (oilseed rape; [7]): 5
Corn plant response rating (0 to 100 scale) (corn; 125 g ai/ha): 0
Corn plant response rating (corn; [3]): 60
Plant response rating, Rice (rice): 35
Foxtail, Giant plant response rating (0 to 100 scale) (giant foxtail [2]; 125 g ai/ha): 90
Foxtail, Giant plant response rating (giant foxtail [2]; [3]): 90
Crabgrass, Large plant response rating (large (Lg) crabgrass; 125 g ai/ha): 60
Plant response rating, Crabgrass, Large (large (Lg) crabgrass; 500 g ai/ha): 90
Plant response rating (0 to 100), Galium (galium; [4]): 65
Galium plant response rating (galium; [5]): 70
Plant response rating, Galium (galium; [6]): 95
Plant response rating, Galium (galium; [7]): 80
Pigweed plant response rating (pigweed; 125 g ai/ha): 100
Plant response rating, Pigweed (pigweed; 500 g ai/ha): 100
Plant response rating (0 to 100), Lambsquarters (lambsquarters; [4]): 55
Lambsquarters plant response rating (lambsquarters; [5]): 60
Plant response rating, Lambsquarters (lambsquarters; [6]): 75
Plant response rating, Lambsquarters (lambsquarters; [7]): 70
Plant response rating (0 to 100), Chickweed (chickweed; [4]): 5
Chickweed plant response rating (chickweed; [5]): 30
Plant response rating, Chickweed (chickweed; [6]): 60
Plant response rating, Chickweed (chickweed; [7]): 50
Plant response rating (0 to 100), Ryegrass, Italian (Italian ryegrass; [4]): 0
Ryegrass, Italian plant response rating (Italian ryegrass; [5]): 0
Plant response rating, Ryegrass, Italian (Italian ryegrass; [6]): 10
Plant response rating, Ryegrass, Italian (Italian ryegrass; [7]): 5
Plant response rating (0 to 100), Waterhemp (waterhemp; [4]): 65
Waterhemp plant response rating (waterhemp; [5]): 65
Plant response rating, Waterhemp (waterhemp; [6]): 85
Plant response rating, Waterhemp (waterhemp; [7]): 70
